From ChEMBL document CHEMBL1145802, “Dual probes for the dopamine transporter and sigma1 receptors: novel piperazinyl alkyl-bis(4'-fluorophenyl)amine analogues as potential cocaine-abuse therapeutic agents” (J Med Chem, 2003) come the findings set out here.

For one experiment, the species on record is Cavia porcellus. Kind of experiment: Ratio of binding affinities for dopamine transporter over sigma-1 receptor.
The target in experiment [1] is Sodium-dependent dopamine transporter (Rattus norvegicus, UniProt P23977). Put plainly: Binding affinity against dopamine transporter was determined by the displacement of [3H]WIN-35428 radioligand in rat brain. The class given is tissue-based. (In general: Displacement assays read how much labelled ligand stays bound in the presence of the test substance.)
For another experiment, the target named is Sigma 2 receptor. Kind of experiment: Binding affinity against Sigma receptor type 2 was determined by the displacement of [3H]DTG/dextrallorphan radioligand. Set-up: species or system Rattus norvegicus.
Experiment [2] concerns the target Norepinephrine transporter (Rattus norvegicus, UniProt Q9WTR4). Kind of experiment: Displacement of [3H]nisoxetine from rat brain norepinephrine transporter. The experiment is classed as tissue-based.
Experiment [3] has as its target Sodium-dependent serotonin transporter (Rattus norvegicus, UniProt P31652). Put plainly: Binding affinity against serotonin transporter by displacement of [3H]citalopram in rat brain. The class given is tissue-based.
In experiment [4] the target is Monoamine transporters; serotonin & dopamine (Rattus norvegicus) (UniProt P31652+P23977). Kind of experiment: Ratio for the binding affinities of dopamine transporter over serotonin transporter. The experiment is classed as protein assay.
In experiment [5] the target is Monoamine transporters; Norepininephrine & dopamine (Rattus norvegicus) (UniProt P23977+Q9WTR4). Kind of experiment: Ratio of binding affinities for dopamine and norepinephrine transporters. The experiment is classed as protein assay.

Chain of Sodium-dependent serotonin transporter (P31652 whole entry): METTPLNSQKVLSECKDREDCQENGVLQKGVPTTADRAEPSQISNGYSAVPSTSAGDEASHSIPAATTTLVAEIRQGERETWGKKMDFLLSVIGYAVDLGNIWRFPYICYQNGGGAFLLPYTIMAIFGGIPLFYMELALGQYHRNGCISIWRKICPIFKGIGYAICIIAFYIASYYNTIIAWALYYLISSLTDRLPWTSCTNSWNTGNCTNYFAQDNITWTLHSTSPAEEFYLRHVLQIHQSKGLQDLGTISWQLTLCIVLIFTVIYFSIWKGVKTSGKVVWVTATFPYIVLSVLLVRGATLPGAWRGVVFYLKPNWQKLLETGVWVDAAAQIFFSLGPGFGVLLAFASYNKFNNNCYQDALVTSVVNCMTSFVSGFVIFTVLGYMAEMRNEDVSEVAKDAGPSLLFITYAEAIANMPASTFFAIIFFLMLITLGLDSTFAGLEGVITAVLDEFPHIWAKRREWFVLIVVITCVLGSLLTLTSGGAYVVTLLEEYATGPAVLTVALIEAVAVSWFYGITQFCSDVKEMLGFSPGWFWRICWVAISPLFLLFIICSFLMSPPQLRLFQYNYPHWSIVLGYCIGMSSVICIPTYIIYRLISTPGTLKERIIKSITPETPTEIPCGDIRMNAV
Chain of Monoamine transporters; serotonin & dopamine (Rattus norvegicus) (P23977 whole entry, looked up): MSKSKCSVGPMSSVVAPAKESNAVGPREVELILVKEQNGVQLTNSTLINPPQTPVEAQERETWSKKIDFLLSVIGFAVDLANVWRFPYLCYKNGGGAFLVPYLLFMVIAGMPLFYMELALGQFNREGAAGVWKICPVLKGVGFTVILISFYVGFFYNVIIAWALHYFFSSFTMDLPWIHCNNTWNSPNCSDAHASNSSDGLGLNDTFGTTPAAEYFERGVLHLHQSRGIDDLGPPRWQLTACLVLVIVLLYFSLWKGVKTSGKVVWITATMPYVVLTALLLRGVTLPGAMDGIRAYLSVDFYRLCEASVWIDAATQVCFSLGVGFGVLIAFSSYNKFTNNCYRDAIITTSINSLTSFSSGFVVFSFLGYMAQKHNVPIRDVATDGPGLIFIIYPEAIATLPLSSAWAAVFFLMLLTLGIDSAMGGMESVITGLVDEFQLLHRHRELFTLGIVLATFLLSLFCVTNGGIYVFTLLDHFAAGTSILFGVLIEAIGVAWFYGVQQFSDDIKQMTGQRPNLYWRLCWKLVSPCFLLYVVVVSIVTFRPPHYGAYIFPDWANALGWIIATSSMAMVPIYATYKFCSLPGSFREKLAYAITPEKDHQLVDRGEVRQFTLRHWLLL
Chain of Monoamine transporters; serotonin & dopamine (Rattus norvegicus) (P31652 whole entry, looked up): as the sequence (P31652 whole entry) above
Chain of Sodium-dependent dopamine transporter (P23977 whole entry): as the sequence (P23977 whole entry, looked up) above
Chain of Norepinephrine transporter (Q9WTR4 whole entry): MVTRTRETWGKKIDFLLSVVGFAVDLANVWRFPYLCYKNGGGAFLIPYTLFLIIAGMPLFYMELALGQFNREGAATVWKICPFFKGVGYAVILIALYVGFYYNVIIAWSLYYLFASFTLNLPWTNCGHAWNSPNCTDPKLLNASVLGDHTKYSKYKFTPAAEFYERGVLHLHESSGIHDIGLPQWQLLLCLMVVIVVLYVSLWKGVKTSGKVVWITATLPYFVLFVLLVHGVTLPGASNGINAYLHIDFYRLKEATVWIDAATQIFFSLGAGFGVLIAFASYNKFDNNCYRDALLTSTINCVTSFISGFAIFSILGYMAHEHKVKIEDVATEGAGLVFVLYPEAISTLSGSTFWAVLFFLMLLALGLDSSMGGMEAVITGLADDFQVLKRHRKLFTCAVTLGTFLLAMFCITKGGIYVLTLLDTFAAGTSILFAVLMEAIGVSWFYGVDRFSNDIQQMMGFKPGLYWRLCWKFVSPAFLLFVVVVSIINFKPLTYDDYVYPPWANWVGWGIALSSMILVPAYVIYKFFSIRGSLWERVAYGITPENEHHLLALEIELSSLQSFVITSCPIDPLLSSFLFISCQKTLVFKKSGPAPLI

As usually defined, the Ki is a measure of affinity in units of concentration, obtained from inhibition or displacement. Consider `C[C@@H]1CN(CCCn2c3ccccc3c3cc(N)ccc32)C[C@@H](C)N1`, for which the Ratio in the experiment listed under Cavia porcellus stood at 2.4. The same compound registered a Ki in experiment [1] of 2.4 µM.

For `Fc1ccc(N(CCCN2CCNCC2)c2ccc(F)cc2)cc1`, the Ki on Sigma 2 receptor was 0.385 µM; in experiment [2], 0.396 µM; in experiment [3] it was 0.133 µM; in experiment [1], 0.0608 µM. Also, the values for the Ratio (in experiment [4]; in the experiment listed under Cavia porcellus; in experiment [5]) were 2, 23 and 7, respectively.

Turning to `C[C@@H]1CN(CCCN(c2ccc(F)cc2)c2ccc(F)cc2)C[C@@H](C)N1CCCc1ccccc1`, the Ki is 0.0186 µM on Sigma 2 receptor and 0.0228 µM in experiment [1]. For the same compound, the Ratio in experiment [4] worked out at 94; in the experiment listed under Cavia porcellus, 0.5; in experiment [5], 45.

For the compound `C[C@@H]1CN(CCCN(c2ccc(F)cc2)c2ccc(F)cc2)C[C@@H](C)N1CCc1ccc(Cl)c(Cl)c1`, the values for the Ki in experiment [3] and in experiment [1] were 4.35 µM and 0.18 µM, respectively.

As for `CCN(CC)CCOC(=O)C1(c2ccccc2)CCCC1`, the Ki in experiment [1] stood at 5.18 µM.

For `C[C@@H]1CN(CCCN(c2ccc(F)cc2)c2ccc(F)cc2)C[C@@H](C)N1`, the Ratio in experiment [4] turned out to be 170; in the experiment filed under Cavia porcellus, 1.6; in experiment [5] it was 219. The affinity in experiment [1] corresponds to a Ki of 0.0771 µM.

In turn, `CCCN1CCC[C@@H](c2cccc(O)c2)C1` [PRECLAMOL] registered a Ki in experiment [1] of 3.27 µM.

Consider `C[C@@H]1CN(CCCn2c3ccccc3c3ccccc32)C[C@@H](C)N1C`, for which, in the experiment listed under Cavia porcellus, the Ratio worked out at 1.3. The Ki in experiment [1] was 0.436 µM.

For `C[C@@H]1CN(CCCN(c2ccccc2)c2ccccc2)C[C@@H](C)N1`, the Ratio in experiment [4] was determined as 87; in the experiment filed under Cavia porcellus, 0.2; in experiment [5], 8.

Compound `C[C@@H]1CN(CCCn2c3ccc([N+](=O)[O-])cc3c3cc([N+](=O)[O-])ccc32)C[C@@H](C)N1` came in with a Ki in experiment [1] of 174 µM.

Turning to `C[C@@H]1CN(CCCn2c3ccc(Br)cc3c3cc(Br)ccc32)C[C@@H](C)N1`, the Ratio in the experiment filed under Cavia porcellus was 1.1. Besides, in experiment [1], the Ki was determined as 3.89 µM.

For `Fc1ccc(N(CCCN2CCN(CCCc3ccccc3)CC2)c2ccc(F)cc2)cc1`, the inhibitory constant (Ki) in experiment [2] came to 0.682 µM; in experiment [3], 1.21 µM; in experiment [1] it was 0.0181 µM. Moreover, the values for the Ratio (in experiment [4]; in the experiment listed under Cavia porcellus; in experiment [5]) were 67, 3.7 and 38, respectively.

`Fc1ccc(N(CCCN2CCN(Cc3ccccc3)CC2)c2ccc(F)cc2)cc1`: the Ki on Sigma 2 receptor was determined as 0.0781 µM; in experiment [2], 5.21 µM; in experiment [3], 3.73 µM; in experiment [1], 0.0276 µM. For the same compound, the Ratio in experiment [4] was 140; in the experiment filed under Cavia porcellus it was 0.5; in experiment [5], 190.

In the case of `OC(CCN1CCN(CCCN(c2ccc(F)cc2)c2ccc(F)cc2)CC1)c1ccccc1` (configuration not stated), the Ki turned out to be 0.803 µM in experiment [3] and 0.0085 µM in experiment [1].

On to `C[C@@H]1CN(CCCn2c3ccccc3c3ccccc32)C[C@@H](C)N1CCCc1ccccc1`, for which the Ratio in the experiment filed under Cavia porcellus is 0.4. In addition, in experiment [1], the affinity, expressed as Ki, was 0.263 µM.

Regarding `C[C@@H]1CN(CCCN(c2ccccc2)c2ccccc2)C[C@@H](C)N1CCc1ccc(Cl)c(Cl)c1`, the inhibition constant (Ki) at Sigma 2 receptor came to 0.216 µM; in experiment [1], 0.272 µM. The Ratio in experiment [4] was 18; in the experiment filed under Cavia porcellus, 0.1; in experiment [5] it was > 110.

Take `C[C@@H]1CN(CCCn2c3ccccc3c3cc([N+](=O)[O-])ccc32)C[C@@H](C)N1`: the Ratio in the experiment filed under Cavia porcellus is 5.5. In experiment [1], this compound came in with a Ki of 0.109 µM.

As for `C[C@@H]1CN(CCCN(c2ccccc2)c2ccccc2)C[C@@H](C)N1CCCc1ccccc1`, the Ratio in experiment [4] was 20; in the experiment filed under Cavia porcellus, 1.6; in experiment [5], 60.
